Source: the kinase profiling compilation of Christmann-Franck et al. (2016)

Key:
Assay in all cases: radiometric filter-binding kinase assay, Kinase HotSpot
Details in all cases: compound 0.5 µM; ATP 10 µM
BLK (human) = BLK (human) (UniProt P51451)
GSK3A (human) = GSK3A (human) (UniProt P49840)
HIPK3 (human) = HIPK3 (human) (UniProt Q9H422)
KIT (human) = KIT (human) (UniProt P10721)
PRKCG (human) = PRKCG (human) (UniProt P05129)
WEE1 (human) = WEE1 (human) (UniProt P30291)
LTK (human) = LTK (human) (UniProt P29376)
MARK4 (human) = MARK4 (human) (UniProt Q96L34)
JAK2 JH1 JH2 (human) = JAK2 JH1 JH2 (human) (UniProt O60674)
FES (human) = FES (human) (UniProt P07332)
PLK2 (human) = PLK2 (human) (UniProt Q9NYY3)
CAMK2A (human) = CAMK2A (human) (UniProt Q9UQM7)
PTK2 (human) = PTK2 (human) (UniProt Q05397)
MAP3K10 (human) = MAP3K10 (human) (UniProt Q02779)
[1] = target: TYK2 JH1 catalytic (human) (UniProt P29597)
WNK2 (human) = WNK2 (human) (UniProt Q9Y3S1)
SGK2 (human) = SGK2 (human) (UniProt Q9HBY8)
PIM3 (human) = PIM3 (human) (UniProt Q86V86)
STK3 (human) = STK3 (human) (UniProt Q13188)
SRPK3 (human) = SRPK3 (human) (UniProt Q9UPE1)
CDK3 CCNE1 (human) = CDK3 CCNE1 (human) (UniProt Q00526+P24864)
MAPK12 (human) = MAPK12 (human) (UniProt P53778)
AKT1 (human) = AKT1 (human) (UniProt P31749)
MAPKAPK3 (human) = MAPKAPK3 (human) (UniProt Q16644)
CDC42BPB (human) = CDC42BPB (human) (UniProt Q9Y5S2)
CAMK2G (human) = CAMK2G (human) (UniProt Q13555)
FLT3 (human) = FLT3 (human) (UniProt P36888)
OXSR1 (human) = OXSR1 (human) (UniProt O95747)
PBK (human) = PBK (human) (UniProt Q96KB5)
RIPK2 (human) = RIPK2 (human) (UniProt O43353)
PIM2 (human) = PIM2 (human) (UniProt Q9P1W9)
DCLK2 (human) = DCLK2 (human) (UniProt Q8N568)
PKN2 (human) = PKN2 (human) (UniProt Q16513)
PNCK (human) = PNCK (human) (UniProt Q6P2M8)
PDGFRA (human) = PDGFRA (human) (UniProt P16234)
CSNK1G2 (human) = CSNK1G2 (human) (UniProt P78368)
[2] = tested on: SGK1 (human), O00141 [S422D]
DAPK1 (human) = DAPK1 (human) (UniProt P53355)
DMPK (human) = DMPK (human) (UniProt Q09013)
KDR (human) = KDR (human) (UniProt P35968)
MARK2 (human) = MARK2 (human) (UniProt Q7KZI7)
PIM1 (human) = PIM1 (human) (UniProt P11309)

Chain of PLK2 (human) (Q9NYY3 whole entry, looked up): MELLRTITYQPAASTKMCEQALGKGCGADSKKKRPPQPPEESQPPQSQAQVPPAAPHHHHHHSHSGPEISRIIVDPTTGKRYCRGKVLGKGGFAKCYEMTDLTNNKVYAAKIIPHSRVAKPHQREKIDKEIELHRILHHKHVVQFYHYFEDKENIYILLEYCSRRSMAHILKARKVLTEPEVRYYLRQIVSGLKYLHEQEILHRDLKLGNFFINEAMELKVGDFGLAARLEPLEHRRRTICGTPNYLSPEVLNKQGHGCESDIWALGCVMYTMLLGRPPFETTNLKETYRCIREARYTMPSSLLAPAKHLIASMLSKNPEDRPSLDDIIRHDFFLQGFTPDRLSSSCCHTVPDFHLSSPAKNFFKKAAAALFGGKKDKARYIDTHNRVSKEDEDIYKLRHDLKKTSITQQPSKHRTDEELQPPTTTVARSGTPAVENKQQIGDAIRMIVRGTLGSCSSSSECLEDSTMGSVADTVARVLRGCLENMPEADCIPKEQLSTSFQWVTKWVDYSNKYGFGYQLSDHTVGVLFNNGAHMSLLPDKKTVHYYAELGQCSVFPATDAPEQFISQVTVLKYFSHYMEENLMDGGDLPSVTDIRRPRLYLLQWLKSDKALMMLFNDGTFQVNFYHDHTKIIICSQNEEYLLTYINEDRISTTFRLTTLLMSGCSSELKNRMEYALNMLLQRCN
Chain of MAP3K10 (human) (Q02779 whole entry, looked up): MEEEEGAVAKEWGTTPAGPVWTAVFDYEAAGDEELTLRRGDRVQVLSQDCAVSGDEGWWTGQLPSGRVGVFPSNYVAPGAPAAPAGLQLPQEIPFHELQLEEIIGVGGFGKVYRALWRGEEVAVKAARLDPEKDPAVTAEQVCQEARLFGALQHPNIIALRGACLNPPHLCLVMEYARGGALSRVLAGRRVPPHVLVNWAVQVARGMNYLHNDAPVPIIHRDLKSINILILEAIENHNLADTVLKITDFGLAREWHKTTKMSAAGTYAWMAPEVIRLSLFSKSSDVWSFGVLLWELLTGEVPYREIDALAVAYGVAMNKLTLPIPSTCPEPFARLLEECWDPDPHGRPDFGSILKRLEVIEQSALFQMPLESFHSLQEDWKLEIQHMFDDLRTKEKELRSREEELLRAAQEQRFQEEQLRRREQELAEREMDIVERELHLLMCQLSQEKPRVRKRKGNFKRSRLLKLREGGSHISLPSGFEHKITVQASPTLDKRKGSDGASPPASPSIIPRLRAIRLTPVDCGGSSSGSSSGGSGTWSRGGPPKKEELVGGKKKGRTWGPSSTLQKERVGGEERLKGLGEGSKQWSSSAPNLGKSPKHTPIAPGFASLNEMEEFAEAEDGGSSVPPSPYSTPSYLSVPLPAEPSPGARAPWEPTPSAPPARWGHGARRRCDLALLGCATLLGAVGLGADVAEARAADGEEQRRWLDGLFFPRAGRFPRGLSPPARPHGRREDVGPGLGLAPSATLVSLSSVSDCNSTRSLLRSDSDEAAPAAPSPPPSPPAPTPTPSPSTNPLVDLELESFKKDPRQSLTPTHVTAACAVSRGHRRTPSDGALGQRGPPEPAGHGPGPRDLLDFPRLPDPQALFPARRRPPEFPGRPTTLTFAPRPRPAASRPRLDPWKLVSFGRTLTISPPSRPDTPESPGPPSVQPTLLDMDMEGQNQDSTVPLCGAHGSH
Chain of WNK2 (human) (Q9Y3S1 whole entry, looked up): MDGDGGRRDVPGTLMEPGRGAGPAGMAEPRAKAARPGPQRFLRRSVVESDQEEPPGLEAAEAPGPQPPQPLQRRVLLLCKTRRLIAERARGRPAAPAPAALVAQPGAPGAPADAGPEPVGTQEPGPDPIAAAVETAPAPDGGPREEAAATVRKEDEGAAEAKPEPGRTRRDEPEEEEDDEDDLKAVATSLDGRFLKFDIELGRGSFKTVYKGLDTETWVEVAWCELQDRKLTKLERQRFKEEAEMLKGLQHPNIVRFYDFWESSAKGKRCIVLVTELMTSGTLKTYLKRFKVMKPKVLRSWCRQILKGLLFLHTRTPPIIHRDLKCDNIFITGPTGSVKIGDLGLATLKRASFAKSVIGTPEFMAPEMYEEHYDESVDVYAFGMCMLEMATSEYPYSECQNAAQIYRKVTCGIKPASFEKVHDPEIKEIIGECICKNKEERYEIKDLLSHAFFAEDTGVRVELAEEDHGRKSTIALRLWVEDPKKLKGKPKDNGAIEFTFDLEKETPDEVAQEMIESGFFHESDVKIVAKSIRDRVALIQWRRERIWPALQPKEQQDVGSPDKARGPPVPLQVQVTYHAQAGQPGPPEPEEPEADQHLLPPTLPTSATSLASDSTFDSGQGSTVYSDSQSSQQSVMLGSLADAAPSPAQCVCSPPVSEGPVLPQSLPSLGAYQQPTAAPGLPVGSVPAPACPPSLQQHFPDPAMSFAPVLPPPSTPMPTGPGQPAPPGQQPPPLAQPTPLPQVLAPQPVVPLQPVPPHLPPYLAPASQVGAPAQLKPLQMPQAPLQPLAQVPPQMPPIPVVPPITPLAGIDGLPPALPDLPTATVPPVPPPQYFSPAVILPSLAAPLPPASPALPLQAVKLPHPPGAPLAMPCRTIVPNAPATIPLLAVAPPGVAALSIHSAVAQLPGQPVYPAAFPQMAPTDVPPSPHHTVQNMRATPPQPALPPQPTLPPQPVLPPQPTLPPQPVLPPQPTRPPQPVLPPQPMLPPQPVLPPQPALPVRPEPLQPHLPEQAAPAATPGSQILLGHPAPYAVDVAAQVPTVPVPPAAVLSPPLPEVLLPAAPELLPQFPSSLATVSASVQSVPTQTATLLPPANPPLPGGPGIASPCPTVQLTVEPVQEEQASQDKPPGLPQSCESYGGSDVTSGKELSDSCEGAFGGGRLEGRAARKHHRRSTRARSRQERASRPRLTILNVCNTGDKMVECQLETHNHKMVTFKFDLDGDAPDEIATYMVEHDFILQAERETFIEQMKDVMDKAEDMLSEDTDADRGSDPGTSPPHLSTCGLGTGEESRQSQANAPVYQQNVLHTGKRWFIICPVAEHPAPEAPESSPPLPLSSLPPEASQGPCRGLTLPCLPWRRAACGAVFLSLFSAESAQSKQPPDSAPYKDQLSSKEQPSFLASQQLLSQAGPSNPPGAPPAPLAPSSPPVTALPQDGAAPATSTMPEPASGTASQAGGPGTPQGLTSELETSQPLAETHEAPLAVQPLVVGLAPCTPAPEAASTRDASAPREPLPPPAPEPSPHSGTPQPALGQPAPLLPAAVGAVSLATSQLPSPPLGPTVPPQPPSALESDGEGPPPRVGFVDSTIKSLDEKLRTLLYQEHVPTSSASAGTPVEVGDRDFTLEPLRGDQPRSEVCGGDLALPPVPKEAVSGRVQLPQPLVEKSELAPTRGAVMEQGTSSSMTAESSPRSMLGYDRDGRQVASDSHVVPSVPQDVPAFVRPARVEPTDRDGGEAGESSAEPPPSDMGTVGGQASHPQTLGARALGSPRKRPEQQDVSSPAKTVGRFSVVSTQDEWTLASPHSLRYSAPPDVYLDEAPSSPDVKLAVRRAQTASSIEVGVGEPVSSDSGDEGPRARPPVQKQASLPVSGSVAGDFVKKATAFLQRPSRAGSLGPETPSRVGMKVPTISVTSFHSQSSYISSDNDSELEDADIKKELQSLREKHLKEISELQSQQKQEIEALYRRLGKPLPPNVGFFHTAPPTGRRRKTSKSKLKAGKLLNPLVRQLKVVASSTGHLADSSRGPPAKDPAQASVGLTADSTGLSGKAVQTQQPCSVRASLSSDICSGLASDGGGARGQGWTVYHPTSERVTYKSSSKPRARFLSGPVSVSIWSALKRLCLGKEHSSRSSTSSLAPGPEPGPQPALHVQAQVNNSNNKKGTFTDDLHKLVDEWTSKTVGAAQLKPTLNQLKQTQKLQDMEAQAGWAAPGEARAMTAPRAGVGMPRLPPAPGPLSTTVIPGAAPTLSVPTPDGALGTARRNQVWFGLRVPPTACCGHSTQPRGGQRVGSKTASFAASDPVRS
Chain of MAPKAPK3 (human) (Q16644 whole entry, looked up): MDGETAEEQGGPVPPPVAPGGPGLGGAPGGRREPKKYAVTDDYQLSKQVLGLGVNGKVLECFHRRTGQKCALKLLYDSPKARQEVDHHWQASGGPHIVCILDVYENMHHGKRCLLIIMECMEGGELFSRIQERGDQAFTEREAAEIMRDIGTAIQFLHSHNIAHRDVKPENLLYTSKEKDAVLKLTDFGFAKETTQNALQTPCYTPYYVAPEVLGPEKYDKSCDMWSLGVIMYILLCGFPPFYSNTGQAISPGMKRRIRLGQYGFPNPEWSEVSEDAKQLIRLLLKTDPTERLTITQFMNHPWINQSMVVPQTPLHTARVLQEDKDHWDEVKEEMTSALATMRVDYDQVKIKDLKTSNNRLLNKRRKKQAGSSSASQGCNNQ

## O=C(c1ccccc1)c1ccc(N2CCOCC2)cc1O
BLK (human)
  residual activity: 102%
GSK3A (human)
  residual activity: 102%
HIPK3 (human)
  residual activity: 98.1%
KIT (human)
  residual activity: 96.2%
PRKCG (human)
  residual activity: 95.6%
WEE1 (human)
  residual activity: 94.2%
LTK (human)
  residual activity: 107%
MARK4 (human)
  residual activity: 100%
JAK2 JH1 JH2 (human)
  residual activity: 94.1%
FES (human)
  residual activity: 95.2%
PLK2 (human)
  residual activity: 111%
CAMK2A (human)
  residual activity: 105%
PTK2 (human)
  residual activity: 109%
MAP3K10 (human)
  residual activity: 100%
[1]
  residual activity: 110%
WNK2 (human)
  residual activity: 100%
SGK2 (human)
  residual activity: 105%
PIM3 (human)
  residual activity: 98.9%
STK3 (human)
  residual activity: 100%
SRPK3 (human)
  residual activity: 103%
CDK3 CCNE1 (human)
  residual activity: 105%
MAPK12 (human)
  residual activity: 100%
AKT1 (human)
  residual activity: 102%
MAPKAPK3 (human)
  residual activity: 106%
CDC42BPB (human)
  residual activity: 90.9%
CAMK2G (human)
  residual activity: 94%
FLT3 (human)
  residual activity: 90.6%
OXSR1 (human)
  residual activity: 110%
PBK (human)
  residual activity: 114%
RIPK2 (human)
  residual activity: 95%
PIM2 (human)
  residual activity: 105%
DCLK2 (human)
  residual activity: 103%
PKN2 (human)
  residual activity: 96.8%
PNCK (human)
  residual activity: 101%
PDGFRA (human)
  residual activity: 91.9%
CSNK1G2 (human)
  residual activity: 96.1%
[2]
  residual activity: 101%
DAPK1 (human)
  residual activity: 92.5%
DMPK (human)
  residual activity: 98.9%
KDR (human)
  residual activity: 96.8%
MARK2 (human)
  residual activity: 107%
PIM1 (human)
  residual activity: 101%
